Here are results for 3 compounds from US11447500B2, “Thienopyridine derivatives and pharmaceutical composition comprising same” (WELLMARKER BIO CO., LTD., priority 2018, dated 2022).

One experiment deals with T1, RON kinase (Homo sapiens, UniProt Q04912).
T1 construct: purchased Carna Bioscience
The experiment can be described thus: RON kinase enzyme inhibitory activity, FRET (TR-FRET) technique. It counts as biochemical. The following applies: 60 min reaction. In outline:
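RON kinase (2× stock 0.4 nM) was preincubated 15 min with compound in HEPES pH 7.5/MgCl2 buffer, then reacted 60 min at room temperature with ATP (4× stock 60 μM) and tyrosine peptide substrate (4× stock 400 nM). The reaction was stopped with EDTA plus Eu-anti-phosphotyrosine antibody and read by TR-FRET (ex 340, em 620/665 nm). IC50 came from 665 nm emission versus concentration.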
In general terms: Time-resolved FRET reads energy transfer from a long-lived donor to a nearby acceptor.

In experiment [1] the test system is RON-activated KM12C colon cancer cell line. The experiment can be described thus: Cell killing efficacy, trypan blue exclusion assay, KM12C. It counts as cell-based. The following applies: 48 hours. In a few lines: (§1)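 KM12C (MEM+10% FBS) and HT-29 (RPMI+10% FBS) cells, seeded 24 h earlier, exposed to compound at 1 μM or 5 μM for 48 h after medium change. Live and dead cells counted by trypan blue exclusion (n=2); cell death rate reported relative to a reference comparative compound.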

Experiment [2] deals with RON-mutated (Δ160) HT-29 colon cancer cell line. The experiment can be described thus: Cell killing efficacy, trypan blue exclusion assay, HT-29. It is filed as cell-based. The note with it: HT29 cell, 48 hours. In outline:
as §1

The subject of the next experiment is KM12C cells. Put plainly: Cytotoxicity MTS assay, KM12C. It counts as cell-based. The following applies: Homo sapiens, 72 hours. As to the method:
(§2) In order to confirm the specific cytotoxicity of the drugs, the cultured cells were treated with 0.05% trypsin/EDTA (0.5% trypsin EDTA (10×), Product No.: 15400-054, GIBCO) to detach them from the culture dish, and 3,000 cells (KM12C) or 2,000 cells (HT29, Colo 320 HSR) were dispensed into each well.
(§3) After 24 hours, sample compounds were dissolved in DMSO (Product No.: D8418-250ML, SIGMA) to make 10 mM stock solutions. As the sample compounds, the compounds synthesized in the examples of the present invention and the compounds of the comparative examples were used.
(§4) The cells were treated with the sample compound dilutions, and cultured in a 5% CO2 incubator at 37° C. for 72 hours.
(§5) Thereafter, 20 μL of MTS solution (CellTiter™ 96 Aqueous One Solution Cell Proliferation Assay, Product No.: G3581, Promega) was dispensed into each well and mixed well, and the cells were incubated for 1 to 4 hours at 37° C. in a 5% CO2 incubator.
(In general: Formazan colour is commonly taken as a measure of viable cells.)

The next experiment concerns HT29 cells. The experiment can be described thus: Cytotoxicity MTS assay, HT29. It is filed as cell-based. The following applies: Homo sapiens, HT-29, 72 hours. As to the method: as §2, §3, §4, §5

T1 sequence (Q04912 25-1400): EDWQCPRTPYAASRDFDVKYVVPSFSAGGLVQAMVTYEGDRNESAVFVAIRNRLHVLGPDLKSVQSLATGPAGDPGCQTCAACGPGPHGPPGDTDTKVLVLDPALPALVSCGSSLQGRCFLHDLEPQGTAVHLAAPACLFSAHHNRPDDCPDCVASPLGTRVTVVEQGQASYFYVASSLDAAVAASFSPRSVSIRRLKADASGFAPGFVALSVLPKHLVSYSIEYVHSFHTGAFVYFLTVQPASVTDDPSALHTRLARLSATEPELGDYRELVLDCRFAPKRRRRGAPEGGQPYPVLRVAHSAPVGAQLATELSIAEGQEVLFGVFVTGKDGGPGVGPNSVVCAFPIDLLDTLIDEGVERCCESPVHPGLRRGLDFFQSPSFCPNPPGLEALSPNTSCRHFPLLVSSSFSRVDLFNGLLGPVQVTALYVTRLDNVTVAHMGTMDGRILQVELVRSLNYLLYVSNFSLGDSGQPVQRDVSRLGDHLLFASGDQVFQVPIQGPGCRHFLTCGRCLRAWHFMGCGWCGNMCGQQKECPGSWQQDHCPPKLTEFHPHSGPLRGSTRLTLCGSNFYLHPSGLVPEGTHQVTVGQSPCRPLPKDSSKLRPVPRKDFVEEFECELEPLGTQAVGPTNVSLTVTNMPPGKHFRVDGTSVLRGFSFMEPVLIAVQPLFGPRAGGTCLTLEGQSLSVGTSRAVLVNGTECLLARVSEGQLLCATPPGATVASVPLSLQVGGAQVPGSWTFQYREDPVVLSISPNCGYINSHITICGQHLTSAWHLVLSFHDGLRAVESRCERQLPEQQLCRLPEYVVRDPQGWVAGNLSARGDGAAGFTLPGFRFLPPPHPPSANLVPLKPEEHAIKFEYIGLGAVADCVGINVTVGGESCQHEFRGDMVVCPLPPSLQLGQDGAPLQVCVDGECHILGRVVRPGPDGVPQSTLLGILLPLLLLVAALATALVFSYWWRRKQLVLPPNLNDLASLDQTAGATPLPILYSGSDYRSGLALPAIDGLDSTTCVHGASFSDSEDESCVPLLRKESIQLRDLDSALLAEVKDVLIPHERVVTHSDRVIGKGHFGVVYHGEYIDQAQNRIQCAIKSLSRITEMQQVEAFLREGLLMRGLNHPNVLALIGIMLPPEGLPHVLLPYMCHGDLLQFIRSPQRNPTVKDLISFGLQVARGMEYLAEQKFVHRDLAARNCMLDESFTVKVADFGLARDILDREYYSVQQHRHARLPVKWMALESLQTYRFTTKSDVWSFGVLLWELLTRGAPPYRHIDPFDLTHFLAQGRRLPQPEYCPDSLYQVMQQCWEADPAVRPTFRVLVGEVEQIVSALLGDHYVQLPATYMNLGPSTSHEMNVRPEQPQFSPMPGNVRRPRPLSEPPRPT

As to `COCCNCc1ccc(-c2cc3nccc(Oc4ccc(NC(=O)c5ccnn(-c6ccc(F)cc6)c5=O)cc4F)c3s2)nc1.Cl` [Example 20, N-(3-fluoro-4-[{2-(5-[{(2-methoxyethyl)amino}methyl]pyridin-2-yl)thieno[3,2-b]pyridin-7-yl}oxy]phenyl)-2-(4-fluorophenyl)-3-oxo-2,3-dihydropyridazine-4-carboxamide Hydrochloride], the IC50 against RON kinase is 0.00247 µM; with KM12C cells, 0.01 µM; in the experiment with HT29 cells it was greater than 10 µM. Besides, the “Cell death rate (Relative to Comp. Ex. 1)” value is listed as “x 1.07” in experiment [1] (1 μM), “x 1.11” in experiment [1] (5 μM), “x 0.75” in experiment [2] (1 μM) and “x 1.13” in experiment [2] (5 μM).
Take `Cc1ccc(C(=O)Nc2ccc(Oc3cc4cnn(C)c4cc3-c3cn[nH]c3)c(F)c2)c(=O)n1-c1ccc(F)cc1` [Comp. Ex. 3, N-(3-fluoro-4-(1-methyl-6-(1H-pyrazol-4-yl)-1H-indazol-5-yloxy)phenyl)-1-(4-fluorophenyl)-6-methyl-2-oxo-1,2-dihydropyridine-3-carboxamide, reference compound]: the IC50 against RON kinase was 0.00374 µM; in the experiment with KM12C cells, 0.117 µM; with HT29 cells it was 10.8 µM. In addition, the “Cell death rate (Relative to Comp. Ex. 1)” value in experiment [1] (1 μM) is “x 0.54”; in experiment [1] (5 μM), “x 0.33”; in experiment [2] (1 μM), “x 0.83”; in experiment [2] (5 μM), “x 0.52”.
On to `CCOc1ccn(-c2ccc(F)cc2)c(=O)c1C(=O)Nc1ccc(Oc2ccnc3cc(-c4ccc(CN5CCN(C)CC5)cn4)sc23)c(F)c1.Cl` [Example 33, 4-ethoxy-N-{3-fluoro-4-[(2-{5-[(4-methylpiperazin-1-yl)methyl]pyridin-2-yl}thieno[3,2-b]pyridin-7-yl)oxy]phenyl}-1-(4-fluorophenyl)-2-oxo-1,2-dihydropyridine-3-carboxamide Hydrochloride], for which the figures for the half-maximal inhibitory concentration (IC50) on RON kinase, in the experiment with KM12C cells and in the experiment on HT29 cells were 0.00026 µM, 0.009 µM and 0.335 µM, respectively. The “Cell death rate (Relative to Comp. Ex. 1)” value in experiment [1] (1 μM) was “x 1.99”; in experiment [1] (5 μM) it was “x 2.13”; in experiment [2] (1 μM), “x 2.01”; in experiment [2] (5 μM) it was “x 1.50”.

By IC50 is commonly meant the midpoint of a concentration-inhibition curve.
